Strand notation (5' to 3'): a small letter for the sugar, then the base; units joined by * are phosphorothioate-linked, units joined directly phosphodiester-linked; [ ] holds rarer units or linkages, { } end groups; capitals alone tell only the bases. d = 2'-deoxy (DNA)
Legend:
Format in all cases: cell-based, human
[1] = tested on: PC-3 prostrate cell adenocarcinoma; assay: Relative colony forming efficiency after antisense treatment (Table 13); conditions: 0.2 μM antisense oligodeoxyribonucleotide phosphorothioate; PC-3 cells; averages of 2-8 determinations
[2] = tested on: T24 bladder cell carcinoma; assay: as above; conditions: 0.2 μM antisense oligodeoxyribonucleotide phosphorothioate; T24 cells; averages of 2-8 determinations
A549 lung cell carcinoma = assay: as above; conditions: 0.2 μM antisense oligodeoxyribonucleotide phosphorothioate; A549 cells; averages of 2-8 determinations
[3] = tested on: HCT116 colon cell carcinoma; assay: as above; conditions: 0.2 μM antisense oligodeoxyribonucleotide phosphorothioate; HCT116 cells; averages of 2-8 determinations
[4] = tested on: MDA-MB-231 breast cell adenocarcinoma; assay: Relative colony forming efficiency after antisense treatment (Table 13, FIG. 11, FIG. 12); conditions: 0.2 μM antisense oligodeoxyribonucleotide phosphorothioate; MDA-MB-231 cells; averages of 2-8 determinations
Experimental: Colony forming efficiency was determined as previously reported [Huang and Wright, 1994]. The cells were cultured for 24 hours at 37° C. in growth medium with 10% fetal bovine serum. The cells were washed in 5 ml phosphate buffered saline, pH 7.2, once prior to lipofectin+/−oligonucleotide treatment.
The oligonucleotides being tested were added to cell cultures in the presence of 2.5 μg of DOTMA/DOPE (Lipofectin; Life Technologies, Inc.) for four hours. The oligonucleotide was tested at 0.2 μM unless otherwise indicated. Controls were the cultures treated with lipofectin but without the oligonucleotide. After 4 hours the medium containing the oligonucleotide was removed and washed with 5 ml of growth medium. The cells were then cultured in growth medium containing 10% fetal bovine serum for seven to ten days. Surviving cells were visualized by methylene blue staining, and colonies were scored. In some experiments cell aliquotes were removed from the culture and viability was determined using the trypan blue exclusion test [Phillips, 1973]. Results were analyzed as percent of surviving cells compared to control cells.
To test the antisense effects of many of these sequences as phosphorthioate deoxyribonucleotides, they were examined in relative colony forming experiments performed with a series of human tumor cell lines. Many of these antisense constructs, as predicted, are potent inhibitors of human tumor cell proliferation. For results obtained with cancer cells derived from the bladder, breast, lung, colon, pancreas, prostate, liver and cervix, see Table 13. In addition, in vivo studies with AS-II-626-20 were undertaken in C3H/HeN mice as reported in Table 14 and show a significant reduction in metastasis in the antisense treated mice.
Colony forming ability of MDA-MB-231 human breast cancer cells treated with 28 different antisense oligonucleotides was estimated as previously described (Choy et al., 1988). Aliquots of cell suspension were seeded into 60 mm Petri dishes and incubated at 37° C. overnight in α-MEM medium supplemented with 10% fetal bovine serum. Cells were washed in 5 ml of phosphate buffered saline, pH 7.2, prior to 0.2 μM antisense/lipofectin treatments for 4 hours. The media containing the antisense oligonucleotides were removed and cells were washed once and cultured in growth medium for 7 to 10 days. Colonies were stained with methylene blue and scored as described (Choy et al., 1988; Huang and Wright 1994). Percent inhibition was calculated by comparison with the number of colonies present in cultures grown in the absence of antisense oligonucleotides. All experiments were performed in quadruplicate. FIG. 11 is a graph of the percentage inhibition of colony formation by treatment with the various antisense oligonucleotides.
Colony forming ability of various human tumor cell lines was estimated by determining relative colony forming efficiencies (Choy et al., 1988). Cells from various cell lines were washed in 5 ml of phosphate buffered saline, pH 7.2. The cells were treated with 0.2 μM AS-I-618-20 antisense oligonucleotide/lipofectin for 4 hours. The medium containing the antisense oligonucleotide was then removed and the cells were gently washed with 5 ml of growth medium. The cells were cultured in growth medium containing 10% fetal bovine serum for seven to ten days. […] The following human tumor cell lines were evaluated: HepG2 (liver), SK-OV-3 (ovary), U87 (brain), A2058 (melanoma), H460 (lung), MDA-MB-231 (breast) and AsPC-1 (pancreas).

[5] = tested on: MIA PaCa-2 pancreatic cell carcinoma; assay: Relative colony forming efficiency after antisense treatment (Table 13); conditions: 0.2 μM antisense oligodeoxyribonucleotide phosphorothioate; MIA PaCa-2 cells; averages of 2-8 determinations
[6] = tested on: HepG2 hepatocellular carcinoma; assay: Relative colony forming efficiency after antisense treatment (Table 13, FIG. 12); conditions: 0.2 μM antisense oligodeoxyribonucleotide phosphorothioate; HepG2 cells; averages of 2-8 determinations

Sequence	Reduced relative colony forming efficiency, expressed as % inhibition, PC-3 [1]	Reduced relative colony forming efficiency, expressed as % inhibition, T24 [2]	Reduced relative colony forming efficiency, expressed as % inhibition, A549 (A549 lung cell carcinoma)	Reduced relative colony forming efficiency, expressed as % inhibition, HCT116 [3]	Reduced relative colony forming efficiency, expressed as % inhibition, MDA-MB-231 [4]	Reduced relative colony forming efficiency, expressed as % inhibition, MIA PaCa-2 [5]	Reduced relative colony forming efficiency, expressed as % inhibition, HepG2 [6]
GACATCACTCCCATCCTCTG (DNA, all phosphorothioate, methylation of C not given here) [AS-II-1302-20]	79.01%	70.56%	93.17%	71.98%	92.2%	23.86%	
CAGAATATCGACGCAAAAGA (antisense; DNA, all phosphorothioate, methylation of C not given here) [AS-II-909-20]	84.86%	78.57%	78.68%		45.96%	46.13%	
TTCATGGTGTGGCTAGTTGG (DNA, all phosphorothioate, methylation of C not given here) [AS-II-1438-20]	83.96%	43.7%	51.27%		69.06%	42.13%	
AACCGGAAAAGAAAATGCCT (antisense; DNA, all phosphorothioate, methylation of C not given here) [AS-II-890-20]	87.93%	82.07%	81.6%		88.2%	66.02%	
TGCCTCCGACCCTTCCCATT (antisense dT*dG*dC*dC*dT*dC*dC*dG*dA*dC*dC*dC*dT*dT*dC*dC*dC*dA*dT*dT) [AS-II-14-20]	92.76%	77.59%			91.24%	47.93%	88.4%
GGCCCAGATCACCCCTAAAT (antisense; DNA, all phosphorothioate, methylation of C not given here) [AS-II-2128-20]	88.89%	83.74%	87.31%		91.3%	39.23%	
TGGCTGTGCTGGTTAAAGGA (DNA, all phosphorothioate, methylation of C not given here) [AS-II-1659-20]	81.56%	74.09%	54.7%		42.86%	42.54%	
AAACGGCTTCTCACACATAT (antisense; DNA, all phosphorothioate, methylation of C not given here) [AS-II-2151-20]	84.86%	79.83%	79.19%		95.14%	62.15%	
TTTTAACTGGCTGTGCTGGT (DNA, all phosphorothioate, methylation of C not given here) [AS-II-1666-20]	86.06%	71.71%	54.82%		26.71%	49.72%	
TTAGTGGTCAGGAGAATGTA (antisense; DNA, all phosphorothioate, methylation of C not given here) [AS-II-1819-20]	85.46%	53.74%			90.68%	20.02%	83.89%
ATTAAAATCTGCGTTGAAGC (DNA, all phosphorothioate, methylation of C not given here) [AS-II-1700-20]	90.63%	70.94%	77.28%		30.75%	34.52%	
ACCCTTCCCATTGGCTGCGC (dA*dC*dC*dC*dT*dT*dC*dC*dC*dA*dT*dT*dG*dG*dC*dT*dG*dC*dG*dC; antisense) [AS-II-6-20]	89.21%	73.85%			88.4%	95.15%	97.89%
TATCGCCGCCGTGAGTACAA (DNA, all phosphorothioate, methylation of C not given here) [AS-II-1768-20]	86.36%	74.56%	86.8%		91.56%	60.36%	

— patent US7405205B2, “Antitumor antisense sequences directed against R1 and R2 components of ribonucleotide reductase” (Lorus Therapeutics Inc., priority 1996, dated 2008)
